Here are results for 17 compounds from ChEMBL document CHEMBL3991601, “The target landscape of clinical kinase drugs” (Science, 2017).

Activity calls are given as the source filed them. Some results are limits rather than exact numbers.

Experiment [1] deals with Citron Rho-interacting kinase (Homo sapiens, UniProt O14578).
The target of experiment [2] is T1, Mitogen-activated protein kinase kinase kinase 6 (Homo sapiens, UniProt O95382).
T1 sequence (O95382 whole entry): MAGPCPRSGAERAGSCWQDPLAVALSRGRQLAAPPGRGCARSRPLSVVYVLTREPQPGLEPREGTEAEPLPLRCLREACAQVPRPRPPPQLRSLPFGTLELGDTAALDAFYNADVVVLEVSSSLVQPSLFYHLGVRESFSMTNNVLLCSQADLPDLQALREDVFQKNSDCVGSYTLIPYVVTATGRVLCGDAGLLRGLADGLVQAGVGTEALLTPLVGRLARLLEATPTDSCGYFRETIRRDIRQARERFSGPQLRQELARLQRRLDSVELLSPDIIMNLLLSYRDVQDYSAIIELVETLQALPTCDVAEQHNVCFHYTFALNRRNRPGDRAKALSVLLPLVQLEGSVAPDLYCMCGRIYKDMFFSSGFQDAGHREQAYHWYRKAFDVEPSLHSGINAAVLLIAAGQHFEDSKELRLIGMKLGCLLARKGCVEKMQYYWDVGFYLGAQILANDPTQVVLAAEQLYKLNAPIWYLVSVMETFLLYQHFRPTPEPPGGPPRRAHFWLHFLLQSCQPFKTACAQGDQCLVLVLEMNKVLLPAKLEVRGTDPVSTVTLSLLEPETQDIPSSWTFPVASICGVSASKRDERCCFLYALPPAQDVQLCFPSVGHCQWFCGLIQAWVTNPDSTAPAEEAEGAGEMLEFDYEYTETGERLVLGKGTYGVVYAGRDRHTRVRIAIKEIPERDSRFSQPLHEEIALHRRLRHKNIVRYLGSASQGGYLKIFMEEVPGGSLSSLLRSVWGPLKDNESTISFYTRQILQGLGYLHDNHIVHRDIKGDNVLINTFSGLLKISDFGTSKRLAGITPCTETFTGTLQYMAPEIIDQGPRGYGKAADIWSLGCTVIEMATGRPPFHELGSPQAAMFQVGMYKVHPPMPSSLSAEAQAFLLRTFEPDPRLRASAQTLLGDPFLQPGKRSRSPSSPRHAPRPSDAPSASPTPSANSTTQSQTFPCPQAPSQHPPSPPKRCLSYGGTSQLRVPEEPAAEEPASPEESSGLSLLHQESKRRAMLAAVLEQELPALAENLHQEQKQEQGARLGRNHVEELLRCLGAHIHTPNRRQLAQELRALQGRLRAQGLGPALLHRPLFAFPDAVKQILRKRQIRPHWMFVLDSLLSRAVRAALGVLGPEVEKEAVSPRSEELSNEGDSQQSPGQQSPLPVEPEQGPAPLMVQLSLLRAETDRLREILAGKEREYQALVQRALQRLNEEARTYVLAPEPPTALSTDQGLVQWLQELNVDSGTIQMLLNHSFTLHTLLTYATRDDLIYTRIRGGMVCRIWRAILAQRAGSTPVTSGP

In experiment [3] the target is 26S proteasome regulatory subunit 6B (Homo sapiens, UniProt P43686).
26S proteasome regulatory subunit 6B, sequence (P43686 whole entry): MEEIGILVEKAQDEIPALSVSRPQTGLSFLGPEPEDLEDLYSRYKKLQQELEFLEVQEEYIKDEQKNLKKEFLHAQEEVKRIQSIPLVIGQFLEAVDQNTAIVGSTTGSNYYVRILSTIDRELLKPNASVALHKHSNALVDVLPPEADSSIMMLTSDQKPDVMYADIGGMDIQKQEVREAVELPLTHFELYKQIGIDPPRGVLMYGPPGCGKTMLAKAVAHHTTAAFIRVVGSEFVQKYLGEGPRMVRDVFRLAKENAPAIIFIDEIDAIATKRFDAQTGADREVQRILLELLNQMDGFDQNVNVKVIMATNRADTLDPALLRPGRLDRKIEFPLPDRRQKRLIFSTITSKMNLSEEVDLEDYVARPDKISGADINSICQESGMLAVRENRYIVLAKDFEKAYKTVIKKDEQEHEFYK
The next experiment concerns the target T2, Rab-like protein 3 (Homo sapiens, UniProt Q5HYI8).
T2 sequence (Q5HYI8 whole entry): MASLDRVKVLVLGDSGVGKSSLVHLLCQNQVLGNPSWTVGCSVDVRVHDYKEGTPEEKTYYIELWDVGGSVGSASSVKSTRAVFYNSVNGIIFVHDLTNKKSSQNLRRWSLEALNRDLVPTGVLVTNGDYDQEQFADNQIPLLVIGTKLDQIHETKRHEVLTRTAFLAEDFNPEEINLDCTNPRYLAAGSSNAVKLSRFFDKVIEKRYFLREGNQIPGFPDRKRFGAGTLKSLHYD

Experiment [4] concerns the target Rho-associated protein kinase 2 (Homo sapiens, UniProt O75116).
Experiment [5] deals with T3, Serine/threonine-protein kinase ULK1 (Homo sapiens, UniProt O75385).
T3 sequence (O75385 whole entry): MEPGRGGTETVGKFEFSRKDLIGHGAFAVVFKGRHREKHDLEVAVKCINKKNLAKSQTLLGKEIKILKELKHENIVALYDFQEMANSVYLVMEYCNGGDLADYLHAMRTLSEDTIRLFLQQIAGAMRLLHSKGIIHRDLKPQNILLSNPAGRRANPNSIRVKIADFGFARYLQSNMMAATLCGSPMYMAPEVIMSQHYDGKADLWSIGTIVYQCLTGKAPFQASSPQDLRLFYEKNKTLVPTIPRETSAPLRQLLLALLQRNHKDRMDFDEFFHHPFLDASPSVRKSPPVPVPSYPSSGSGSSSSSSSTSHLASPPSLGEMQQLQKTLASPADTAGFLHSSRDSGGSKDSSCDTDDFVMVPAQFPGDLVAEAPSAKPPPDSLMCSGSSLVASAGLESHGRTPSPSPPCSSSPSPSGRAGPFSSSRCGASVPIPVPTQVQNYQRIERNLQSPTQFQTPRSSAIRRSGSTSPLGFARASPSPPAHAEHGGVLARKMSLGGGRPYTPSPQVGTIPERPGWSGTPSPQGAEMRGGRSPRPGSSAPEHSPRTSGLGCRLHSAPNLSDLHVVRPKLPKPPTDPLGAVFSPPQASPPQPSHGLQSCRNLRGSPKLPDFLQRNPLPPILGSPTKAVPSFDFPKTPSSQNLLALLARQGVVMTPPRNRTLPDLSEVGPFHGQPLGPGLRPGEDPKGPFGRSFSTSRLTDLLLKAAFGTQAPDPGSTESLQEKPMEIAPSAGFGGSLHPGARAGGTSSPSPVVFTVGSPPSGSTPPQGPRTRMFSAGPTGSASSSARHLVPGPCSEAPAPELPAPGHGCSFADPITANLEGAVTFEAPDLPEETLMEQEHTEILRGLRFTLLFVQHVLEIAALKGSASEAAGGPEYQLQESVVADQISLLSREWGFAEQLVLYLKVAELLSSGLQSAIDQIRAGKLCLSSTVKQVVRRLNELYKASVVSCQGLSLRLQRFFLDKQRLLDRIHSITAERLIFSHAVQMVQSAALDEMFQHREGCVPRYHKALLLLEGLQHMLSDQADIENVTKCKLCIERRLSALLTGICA

Experiment [6] has as its target Mitogen-activated protein kinase 10 (Homo sapiens, UniProt P53779).
Note: in the data inactive means no Kd found up to 30 µM.

Rho-associated protein kinase 2, sequence (O75116 whole entry): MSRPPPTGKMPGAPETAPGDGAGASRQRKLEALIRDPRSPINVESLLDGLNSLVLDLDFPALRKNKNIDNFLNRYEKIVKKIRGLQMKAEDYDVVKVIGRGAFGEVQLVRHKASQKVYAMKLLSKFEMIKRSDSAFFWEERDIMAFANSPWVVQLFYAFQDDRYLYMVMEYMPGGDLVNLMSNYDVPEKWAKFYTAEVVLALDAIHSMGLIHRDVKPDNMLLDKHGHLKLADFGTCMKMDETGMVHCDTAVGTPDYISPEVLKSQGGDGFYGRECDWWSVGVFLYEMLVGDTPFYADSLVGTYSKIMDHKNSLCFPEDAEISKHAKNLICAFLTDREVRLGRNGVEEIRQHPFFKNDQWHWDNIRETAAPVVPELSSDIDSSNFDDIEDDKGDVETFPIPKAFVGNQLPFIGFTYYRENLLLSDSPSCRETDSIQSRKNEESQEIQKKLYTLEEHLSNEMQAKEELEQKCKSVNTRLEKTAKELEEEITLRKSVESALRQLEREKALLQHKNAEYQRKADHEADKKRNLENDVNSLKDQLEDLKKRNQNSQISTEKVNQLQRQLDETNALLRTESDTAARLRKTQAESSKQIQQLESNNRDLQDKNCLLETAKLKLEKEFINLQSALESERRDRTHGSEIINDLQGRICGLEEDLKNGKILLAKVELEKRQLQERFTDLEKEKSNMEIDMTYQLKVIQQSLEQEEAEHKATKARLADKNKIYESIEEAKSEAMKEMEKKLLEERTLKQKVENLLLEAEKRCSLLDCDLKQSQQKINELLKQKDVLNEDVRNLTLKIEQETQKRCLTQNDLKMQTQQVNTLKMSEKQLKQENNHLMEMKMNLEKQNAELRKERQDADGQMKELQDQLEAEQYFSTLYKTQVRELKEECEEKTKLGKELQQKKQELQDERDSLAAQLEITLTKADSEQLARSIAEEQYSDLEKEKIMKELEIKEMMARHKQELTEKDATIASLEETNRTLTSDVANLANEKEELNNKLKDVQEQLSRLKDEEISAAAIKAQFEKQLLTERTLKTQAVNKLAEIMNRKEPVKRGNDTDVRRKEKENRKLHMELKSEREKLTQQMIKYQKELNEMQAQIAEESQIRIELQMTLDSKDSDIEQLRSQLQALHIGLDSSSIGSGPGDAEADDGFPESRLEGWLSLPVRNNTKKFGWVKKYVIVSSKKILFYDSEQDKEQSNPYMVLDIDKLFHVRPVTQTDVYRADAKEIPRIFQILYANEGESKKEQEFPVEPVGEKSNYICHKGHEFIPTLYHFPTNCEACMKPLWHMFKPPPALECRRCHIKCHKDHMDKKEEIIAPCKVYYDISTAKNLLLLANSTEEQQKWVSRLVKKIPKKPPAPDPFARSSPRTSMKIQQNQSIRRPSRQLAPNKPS
Citron Rho-interacting kinase, sequence (O14578 whole entry): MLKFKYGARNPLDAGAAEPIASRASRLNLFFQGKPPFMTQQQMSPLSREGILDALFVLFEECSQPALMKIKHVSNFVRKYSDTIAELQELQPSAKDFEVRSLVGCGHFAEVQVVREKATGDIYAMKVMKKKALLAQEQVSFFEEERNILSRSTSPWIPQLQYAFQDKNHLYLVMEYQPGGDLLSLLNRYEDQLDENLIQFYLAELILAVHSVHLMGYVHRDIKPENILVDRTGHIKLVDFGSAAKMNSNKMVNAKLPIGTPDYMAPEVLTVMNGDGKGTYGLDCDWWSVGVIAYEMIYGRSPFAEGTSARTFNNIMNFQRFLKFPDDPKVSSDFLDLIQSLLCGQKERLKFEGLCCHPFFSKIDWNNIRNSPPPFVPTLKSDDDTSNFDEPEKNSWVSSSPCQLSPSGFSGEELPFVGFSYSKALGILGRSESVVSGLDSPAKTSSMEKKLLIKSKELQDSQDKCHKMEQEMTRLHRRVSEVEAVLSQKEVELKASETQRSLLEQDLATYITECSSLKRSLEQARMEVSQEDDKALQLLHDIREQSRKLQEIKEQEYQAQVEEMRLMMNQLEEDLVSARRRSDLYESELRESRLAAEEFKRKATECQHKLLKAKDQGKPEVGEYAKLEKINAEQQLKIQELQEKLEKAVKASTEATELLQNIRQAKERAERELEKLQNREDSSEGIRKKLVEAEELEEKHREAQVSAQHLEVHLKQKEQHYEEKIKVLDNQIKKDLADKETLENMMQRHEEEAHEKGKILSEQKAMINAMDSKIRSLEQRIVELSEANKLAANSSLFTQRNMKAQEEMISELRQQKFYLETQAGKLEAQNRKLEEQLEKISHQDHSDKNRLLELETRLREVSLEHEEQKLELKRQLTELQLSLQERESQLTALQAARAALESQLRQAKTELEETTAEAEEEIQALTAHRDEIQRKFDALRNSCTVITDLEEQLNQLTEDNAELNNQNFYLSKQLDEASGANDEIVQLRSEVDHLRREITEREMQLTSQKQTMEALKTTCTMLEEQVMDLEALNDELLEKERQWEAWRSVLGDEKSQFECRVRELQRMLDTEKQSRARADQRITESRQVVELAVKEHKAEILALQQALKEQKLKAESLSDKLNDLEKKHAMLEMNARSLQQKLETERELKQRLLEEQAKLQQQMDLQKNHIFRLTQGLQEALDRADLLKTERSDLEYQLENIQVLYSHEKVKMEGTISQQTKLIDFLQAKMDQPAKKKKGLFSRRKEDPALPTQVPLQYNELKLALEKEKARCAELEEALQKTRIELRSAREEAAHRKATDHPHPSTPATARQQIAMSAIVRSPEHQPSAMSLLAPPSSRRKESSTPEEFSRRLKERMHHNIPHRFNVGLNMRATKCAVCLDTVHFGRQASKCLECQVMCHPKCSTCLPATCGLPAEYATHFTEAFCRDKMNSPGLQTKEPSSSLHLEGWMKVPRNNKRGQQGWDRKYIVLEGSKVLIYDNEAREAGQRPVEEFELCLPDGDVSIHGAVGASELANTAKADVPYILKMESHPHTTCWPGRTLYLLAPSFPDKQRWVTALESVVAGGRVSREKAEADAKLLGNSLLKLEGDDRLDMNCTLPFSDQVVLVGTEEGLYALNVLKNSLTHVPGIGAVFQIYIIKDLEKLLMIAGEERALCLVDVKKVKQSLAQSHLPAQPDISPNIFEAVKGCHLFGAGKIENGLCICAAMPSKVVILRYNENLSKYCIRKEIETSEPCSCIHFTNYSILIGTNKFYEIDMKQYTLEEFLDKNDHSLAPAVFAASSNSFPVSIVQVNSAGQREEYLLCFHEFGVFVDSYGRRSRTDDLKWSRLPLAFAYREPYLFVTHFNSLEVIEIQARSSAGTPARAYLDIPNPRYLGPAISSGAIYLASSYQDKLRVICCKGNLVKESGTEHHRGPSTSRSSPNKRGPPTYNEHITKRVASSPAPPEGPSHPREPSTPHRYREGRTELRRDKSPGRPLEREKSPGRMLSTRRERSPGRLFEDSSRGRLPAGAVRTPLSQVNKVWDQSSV
Mitogen-activated protein kinase 10, sequence (P53779 whole entry): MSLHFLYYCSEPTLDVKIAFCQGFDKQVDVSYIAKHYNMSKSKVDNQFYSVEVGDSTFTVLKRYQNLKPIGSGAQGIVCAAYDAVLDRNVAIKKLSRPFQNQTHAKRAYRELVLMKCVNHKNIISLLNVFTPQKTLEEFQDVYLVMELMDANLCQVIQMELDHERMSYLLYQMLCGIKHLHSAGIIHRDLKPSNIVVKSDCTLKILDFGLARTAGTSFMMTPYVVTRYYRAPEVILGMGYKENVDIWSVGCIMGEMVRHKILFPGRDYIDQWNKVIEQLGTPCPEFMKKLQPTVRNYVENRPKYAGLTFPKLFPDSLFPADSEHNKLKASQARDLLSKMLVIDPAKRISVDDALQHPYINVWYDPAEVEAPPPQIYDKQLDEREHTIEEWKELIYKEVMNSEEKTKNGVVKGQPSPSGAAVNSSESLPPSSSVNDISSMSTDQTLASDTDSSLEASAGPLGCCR

As usually defined, the Kd is the constant that tells how readily two partners part at equilibrium. As to `COc1cc2nccc(Oc3ccc(NC(=O)NC4CC4)c(Cl)c3)c2cc1C(N)=O` [LENVATINIB], the Kd in experiment [1] is > 30 µM (inactive); in experiment [2] it was 1.57 µM; in experiment [3] it was > 30 µM (inactive); at Rab-like protein 3 it was > 30 µM (inactive); in experiment [4], > 30 µM (inactive); in experiment [5] it was > 30 µM (inactive).

As to `CO[C@H]1C[C@@H]2CC[C@@H](C)[C@@](O)(O2)C(=O)C(=O)N2CCCC[C@H]2C(=O)O[C@H]([C@H](C)C[C@@H]2CC[C@@H](OCCO)[C@H](OC)C2)CC(=O)[C@H](C)/C=C(\C)[C@@H](O)[C@@H](OC)C(=O)[C@H](C)C[C@H](C)/C=C/C=C/C=C/1C` [EVEROLIMUS], the Kd in experiment [1], in experiment [2], in experiment [6], in experiment [3], in experiment [4] and in experiment [5] was > 30 µM (inactive) in each case.

Regarding `Cc1ccc(NC(=O)c2ccc(CN3CC[C@H](N(C)C)C3)c(C(F)(F)F)c2)cc1Nc1nccc(-c2cncnc2)n1` [BAFETINIB], the Kd (in experiment [1]; in experiment [2]; in experiment [6]; in experiment [3]; on Rab-like protein 3; in experiment [4]) was > 30 µM (inactive) each time. For the same compound, the Kd in experiment [5] was > 30 µM (inactive).

Take `CC(C)Nc1cc(-c2c[nH]c(C(=O)N[C@H](CO)c3cccc(Cl)c3)c2)c(Cl)cn1` [ULIXERTINIB]: the Kd (in experiment [1]; in experiment [2]; in experiment [6]; in experiment [3]; at Rab-like protein 3; in experiment [4]) was > 30 µM (inactive) each time. The Kd in experiment [5] was > 30 µM (inactive).

Regarding `O=C(Nc1cccc(Cl)c1)Nc1ncc(CCNc2ncnc3ccsc23)s1` [SNS-314], the Kd (in experiment [2]; in experiment [3]; at Rab-like protein 3; in experiment [5]) was > 30 µM (inactive) each time.

On to `O=C1NC(=O)/C(=C/c2ccc3nccc(-c4ccncc4)c3c2)S1` [GSK-1059615], for which the Kd (in experiment [1]; in experiment [2]; in experiment [6]; in experiment [3]; on Rab-like protein 3; in experiment [4]) was > 30 µM (inactive) in each case. The Kd in experiment [5] is > 30 µM (inactive).

For `Cc1cn(-c2cc(NC(=O)c3ccc(C)c(Nc4nccc(-c5cccnc5)n4)c3)cc(C(F)(F)F)c2)cn1` [NILOTINIB], the Kd (in experiment [3]; at Rab-like protein 3) was > 30 µM (inactive) throughout.

As to `COc1cc(CCc2cc(NC(=O)c3ccc(N4C[C@@H](C)N[C@@H](C)C4)cc3)n[nH]2)cc(OC)c1` [AZD-4547], the Kd (in experiment [1]; in experiment [2]; in experiment [6]; in experiment [3]; at Rab-like protein 3; in experiment [4]) was > 30 µM (inactive) each time. Further, the Kd in experiment [5] was > 30 µM (inactive).

Regarding `Nc1nc(N)c2nc(-c3cccc(O)c3)c(-c3cccc(O)c3)nc2n1` [TG100-115], the Kd (in experiment [3]; at Rab-like protein 3) was > 30 µM (inactive) each time.

As for `CN1CCN(c2ccc3nc(-c4c(N)c5c(F)cccc5[nH]c4=O)[nH]c3c2)CC1` [DOVITINIB], the Kd (in experiment [3]; on Rab-like protein 3) was > 30 µM (inactive) each time.

For `Cc1cc(Nc2cc(N3CCN(C)CC3)nc(/C=C/c3ccccc3)n2)n[nH]1` [ENMD-2076], the Kd in experiment [1], in experiment [2], in experiment [6] and in experiment [3] was > 30 µM (inactive) throughout.

`CNC(=O)c1ccc(C)c(-n2c(C)cc(OCc3ccc(F)cc3F)c(Br)c2=O)c1` [PH-797804]: the Kd (in experiment [1]; in experiment [2]; in experiment [6]; in experiment [3]; on Rab-like protein 3) was > 30 µM (inactive) in each case.

As to `Cc1nc(N)sc1-c1ccnc(Nc2ccc(N3CCOCC3)cc2)n1` [CYC-116], the Kd was 1.1 µM (active) in experiment [1]; > 30 µM (inactive) in experiment [2]; 0.147 µM (active) in experiment [6]; > 30 µM (inactive) in experiment [3]; > 30 µM (inactive) at Rab-like protein 3; > 30 µM (inactive) in experiment [5].

Consider `CN1CCC(COc2cnc(-c3cccc(Cn4nc(-c5cccc(C#N)c5)ccc4=O)c3)nc2)CC1` [TEPOTINIB], for which the Kd in experiment [1], in experiment [2], in experiment [6], in experiment [3], in experiment [4] and in experiment [5] was > 30 µM (inactive) throughout.

Turning to `CCn1c(-c2nonc2N)nc2c(C#CC(C)(C)O)ncc(OC[C@H]3CCCNC3)c21` [GSK-690693], the Kd (in experiment [3]; at Rab-like protein 3) was > 30 µM (inactive) each time.

Regarding `CCn1c(=O)c(-c2cc[nH]n2)cc2c(C)nc(N)nc21` [VOXTALISIB], the Kd in experiment [1], in experiment [2], in experiment [6], in experiment [3], in experiment [4] and in experiment [5] was > 30 µM (inactive) each time.

With `Cn1ncc(Cl)c1-c1cc(C(=O)N[C@H](CN)Cc2cccc(F)c2)sc1Cl` [AFURESERTIB], the Kd in experiment [1] is 4.26 µM (active); in experiment [2], > 30 µM (inactive); in experiment [6], > 30 µM (inactive); in experiment [3], > 30 µM (inactive); at Rab-like protein 3, > 30 µM (inactive); in experiment [4], 4.73 µM (active).
